The results in this text go back to US20060194807A1, “Di-aryl substituted pyrazole modulators of metabotropic glutamate receptor-5” (priority 2003, published 2006).

Counter-ions that a name gives are not always drawn.

T1 sequence (P41594 21-1180 isoform P41594-2 limits assumed): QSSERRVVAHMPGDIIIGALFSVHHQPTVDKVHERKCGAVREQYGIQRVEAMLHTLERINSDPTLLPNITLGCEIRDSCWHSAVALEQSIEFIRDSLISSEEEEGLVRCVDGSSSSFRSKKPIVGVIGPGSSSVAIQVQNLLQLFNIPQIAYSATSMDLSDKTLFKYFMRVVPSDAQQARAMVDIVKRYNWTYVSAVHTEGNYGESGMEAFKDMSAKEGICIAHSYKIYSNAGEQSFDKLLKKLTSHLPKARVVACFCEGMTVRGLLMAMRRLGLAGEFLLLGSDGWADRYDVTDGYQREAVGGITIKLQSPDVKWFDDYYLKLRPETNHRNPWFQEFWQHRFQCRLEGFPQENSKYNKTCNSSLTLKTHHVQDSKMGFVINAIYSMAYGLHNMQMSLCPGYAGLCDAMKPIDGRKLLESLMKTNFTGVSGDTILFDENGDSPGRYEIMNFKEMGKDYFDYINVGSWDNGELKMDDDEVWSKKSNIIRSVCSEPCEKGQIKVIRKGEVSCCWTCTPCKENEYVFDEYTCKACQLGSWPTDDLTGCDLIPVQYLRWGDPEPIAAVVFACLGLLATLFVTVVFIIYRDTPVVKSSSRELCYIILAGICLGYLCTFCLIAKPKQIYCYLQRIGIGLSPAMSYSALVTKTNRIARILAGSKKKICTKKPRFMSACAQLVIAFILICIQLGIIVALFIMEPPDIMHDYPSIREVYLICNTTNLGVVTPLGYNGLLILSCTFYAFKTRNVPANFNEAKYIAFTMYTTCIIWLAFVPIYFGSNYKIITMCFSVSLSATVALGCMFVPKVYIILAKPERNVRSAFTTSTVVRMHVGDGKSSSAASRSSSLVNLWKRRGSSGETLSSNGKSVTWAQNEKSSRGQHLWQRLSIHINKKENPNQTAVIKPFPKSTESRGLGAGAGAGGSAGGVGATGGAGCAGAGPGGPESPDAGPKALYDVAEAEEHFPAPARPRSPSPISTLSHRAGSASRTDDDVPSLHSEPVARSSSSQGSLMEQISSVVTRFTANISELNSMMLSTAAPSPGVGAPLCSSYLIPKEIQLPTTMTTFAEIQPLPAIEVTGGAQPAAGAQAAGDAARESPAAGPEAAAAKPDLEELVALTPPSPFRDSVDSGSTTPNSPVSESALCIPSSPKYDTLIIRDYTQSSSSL

This experiment addresses T1, hmGluR5a receptor (Homo sapiens, UniProt P41594).
T1 construct: expressed in transfected cells; host or cells: mouse fibroblast Ltk- cells (hmGluR5a/L38-20 cell line)
As to the kind of experiment: Calcium flux assay (fura-2, glutamate-evoked [Ca2+]i). It is filed as cell-based. As to conditions: hmGluR5a/L38-20 mouse fibroblast Ltk- cells; 10 μM glutamate (EC80); read-out: mGluR5 inhibitory activity, IC50. The protocol: The compounds of this invention were tested against the hmGluR5a receptor stably expressed in mouse fibroblast Ltk-cells (the hmGluR5a/L38-20 cell line) and activity was detected by changes in [Ca^++]i, measured using the fluorescent Ca^++-sensitive dye, fura-2. InsP assays were performed in mouse fibroblast Ltk^− cells (LM5a cell line) stably expressing hmGluR5a. The assays described in International Patent Publication WO 0116121 can be used.
The activity of compounds was examined against the hmGluR5a receptor stably expressed in mouse fibroblast Ltk− cells (the hmGluR5a/L38 cell line). See generally Daggett et al., Neuropharmacology 34:871-886 (1995). Receptor activity was detected by changes in intracellular calcium ([Ca^2+]i, measured using the fluorescent calcium-sensitive dye, fura-2. The hmGluR5a/L38-20 cells were plated onto 96-well plates, and loaded with 3 µM fura-2 for 1 h. Unincorporated dye was washed from the cells, and the cell plate was transferred to a 96-channel fluorimeter (SIBIA-SAIC, La Jolla, Calif.) which is integrated into a fully automated plate handling and liquid delivery system. Cells were excited at 350 and 385 nm with a xenon source combined with optical filters. Emitted light was collected from the sample through a dichroic mirror and a 510 nm interference filter and directed into a cooled CCD camera (Princeton Instruments). Image pairs were captured approximately every is, and ratio images were generated after background subtraction. After a basal reading of 20s, an EC80 concentration of glutamate (10 μM) was added to the well, and the response evaluated for another 60s. The glutamate-evoked increase in [Ca′]i in the presence of the screening compound was compared to the response of glutamate alone (the positive control).
On the technique in general: Calcium flux is commonly read through the fluorescence of an indicator in the cells.
Consider `Clc1cc(-c2cccnc2)cc(-n2cc(-c3ccccn3)cn2)c1` [Example 1, 2-[1-(3-chloro-5-pyridin-3-ylphenyl)-1H-pyrazol-4-yl]pyridine], for which the 50% inhibitory concentration (IC50) was less than 2000 nM.

Consider `Fc1cc(-c2nn[nH]n2)cc(-n2ccc(-c3ccccn3)n2)c1` [Example 2, 2-{1-[3-fluoro-5-(2H-tetraazol-5-yl)phenyl]-1H-pyrazol-3-yl}pyridine], for which the 50% inhibitory concentration (IC50) was less than 2000 nM. Regarding `Clc1cc(-c2cccnc2)cc(-c2cnn(-c3ccccn3)c2)c1` [Example 3, 2-[4-(3-chloro-5-pyridin-3-ylphenyl)-1H-pyrazol-1-yl]pyridine], the 50% inhibitory concentration (IC50) was less than 2000 nM. `c1ccc(-c2cnn(-c3cccc(-c4cccnc4)c3)c2)nc1` [Example 4]: the IC50 was less than 2000 nM. Turning to `c1ccc(-c2cccc(-n3cc(-c4ccccn4)cn3)c2)nc1` [Example 5], the IC50 is less than 2000 nM.

For the compound `c1ccc(-c2cccc(-n3cc(-c4ccccn4)cn3)c2)cc1` [Example 6], the 50% inhibitory concentration (IC50) is less than 2000 nM. As to `COc1cc(-c2cnn(-c3ccccn3)c2)ccc1-c1ccccn1` [Example 7], the IC50 was less than 2000 nM. As for `c1ccc(-c2cnn(-c3cccc(-c4cccnc4)n3)c2)nc1` [Example 8, 6-(4-pyridin-2-yl-1H-pyrazol-1-yl)-2,3′-bipyridine], the concentration for half-maximal inhibition (IC50) was more than 2000 nM. Regarding `c1ccc(-c2ccc(-n3ccc(-c4ccccn4)n3)cc2)cc1` [Example 9, 2-(1-biphenyl-4-yl-1H-pyrazol-3-yl)-pyridine hydrochloride], the half-maximal inhibitory concentration (IC50) is more than 2000 nM.

In the case of `c1ccc(-c2cnn(-c3cccc(-c4ccncc4)c3)c2)nc1` [Example 10], the IC50 was more than 2000 nM. In the case of `c1ccc(-c2ccc(-n3cc(-c4ccccn4)cn3)cc2)nc1` [Example 11], the IC50 is more than 2000 nM. Take `c1ccc(-c2cnn(-c3ccc(-c4cccnc4)cc3)c2)nc1` [Example 12]: the half-maximal inhibitory concentration (IC50) is more than 2000 nM. Take `Cc1ccncc1-c1cc(F)cc(-c2cnn(-c3ccccn3)c2)c1` [Example 13]: the IC50 was more than 2000 nM. As for `Clc1cc(-c2cnn(-c3ccccn3)c2)cc(-n2ccc3ccncc32)c1` [Example 14], the figure is more than 2000 nM; as for `Fc1cc(-c2cnn(-c3ccccn3)c2)ccc1-c1ccccn1` [Example 15], more than 2000 nM; as for `c1ccc(-c2ccc(-n3cc(-c4ccccn4)cn3)cc2)cc1` [Example 16], more than 2000 nM. Regarding `c1ccc(-c2ccccc2-n2cc(-c3ccccn3)cn2)cc1` [Example 17], the IC50 is more than 2000 nM. As for `c1ccc(-c2ccccc2-n2cc(-c3ccncn3)cn2)cc1` [Example 18], the figure is more than 2000 nM; as for `c1ccc(-c2cccc(-n3cc(-c4ccncn4)cn3)c2)cc1` [Example 19], more than 2000 nM; as for `c1ccc(-c2cnn(-c3ccc(C4CCCCC4)cc3)c2)nc1` [Example 20], more than 2000 nM. `c1cc(-c2cnn(-c3ccc(C4CCCCC4)cc3)c2)ncn1` [Example 21]: the IC50 is more than 2000 nM. In the case of `c1ccc2nc(-c3cnn(-c4ccc(C5CCCCC5)cc4)c3)ccc2c1` [Example 22], the half-maximal inhibitory concentration (IC50) is more than 2000 nM. `c1ccc2nc(-c3cnn(-c4ccc(C5CCCCC5)cc4)c3)cnc2c1` [Example 23]: the IC50 is more than 2000 nM. As for `Cc1cc(-c2cnn(-c3ccc(C4CCCCC4)cc3)c2)nc2ccccc12` [Example 24], the figure is more than 2000 nM; as for `c1ccc(-c2ccc(-n3cc(-c4ccncn4)cn3)cc2)cc1` [Example 25], more than 2000 nM. Regarding `Cc1cc(-c2cnn(-c3ccc(N4CCNC4=O)cc3)c2)nc2ccccc12` [Example 26], the 50% inhibitory concentration (IC50) was more than 2000 nM. In the case of `CN1CCN(c2ccc(-n3cc(-c4ccncn4)cn3)cc2)C1=O` [Example 27] it was more than 2000 nM.

For the compound `CN1CCN(c2ccc(-n3cc(-c4ccc5ccccc5n4)cn3)cc2)C1=O` [Example 28], the IC50 was more than 2000 nM. As for `CN1CCN(c2ccc(-n3cc(-c4cnc5ccccc5n4)cn3)cc2)C1=O` [Example 29], the figure is more than 2000 nM; as for `Cc1cc(-c2cnn(-c3ccc(N4CCN(C)C4=O)cc3)c2)nc2ccccc12` [Example 30], more than 2000 nM. As to `c1ccc(-c2cccc(-n3cc(-c4ccccn4)cn3)c2)cc1` [Example 31], the IC50 is more than 2000 nM.

Consider `c1ccc(-c2cccc(-c3cnn(-c4ccccn4)c3)c2)cc1` [Example 33], for which the concentration for half-maximal inhibition (IC50) is more than 2000 nM.

A word on the IC50: it is the point on the concentration scale where inhibition reaches its midpoint.
